Laboratory results taken from ChEMBL document CHEMBL6153051, “Synthesis, biological evaluation and validation of IMB-881 derivatives as anti-Gram-negative bacterial agents” (Bioorg Med Chem, 2025).
≈ marks a conversion by molar mass, not a printed value.

Tests used:
Escherichia coli [1] = test: Antibacterial activity against Escherichia coli ATCC 25922 assessed as bacterial growth inhibition in presence of CAMHB medium by broth microdilution method; type: functional
Acinetobacter baumannii [2] = test: Antibacterial activity against Acinetobacter baumannii ATCC 19606 assessed as bacterial growth inhibition in presence of CAMHB medium by broth microdilution method; type: functional
Klebsiella pneumoniae = test: Antibacterial activity against Klebsiella pneumoniae ATCC […] assessed as bacterial growth inhibition in presence of CAMHB medium by broth microdilution method; type: functional
Pseudomonas aeruginosa = test: Antibacterial activity against Pseudomonas aeruginosa PAO1 assessed as bacterial growth inhibition in presence of CAMHB medium by broth microdilution method; type: functional
[3] = Cytotoxicity against green monkey Vero cells incubated for 48 hrs by CCK-8 assay; type: toxicity, cell-based; conditions: green monkey (Chlorocebus sabaeus)
[4] = Cytotoxicity against dog MDCK cells incubated for 48 hrs by CCK-8 assay; type: toxicity, cell-based; conditions: dog (Canis lupus familiaris)
Escherichia coli [5] = test: Antibacterial activity against ESBL(+) producing Escherichia coli ATCC 35218 assessed as bacterial growth inhibition in presence of CAMHB medium by broth microdilution method; type: functional
Escherichia coli [6] = test: Antibacterial activity against multi-drug resistant Escherichia coli 1 clinical isolate assessed as bacterial growth inhibition in presence of CAMHB medium by broth microdilution method; type: functional
Escherichia coli [7] = test: Antibacterial activity against multi-drug resistant Escherichia coli 2 clinical isolate assessed as bacterial growth inhibition in presence of CAMHB medium by broth microdilution method; type: functional
Escherichia coli [8] = test: Antibacterial activity against multi-drug resistant Escherichia coli 3 clinical isolate assessed as bacterial growth inhibition in presence of CAMHB medium by broth microdilution method; type: functional
Escherichia coli [9] = test: Antibacterial activity against multi-drug resistant Escherichia coli 4 clinical isolate assessed as bacterial growth inhibition in presence of CAMHB medium by broth microdilution method; type: functional
Escherichia coli [10] = test: Antibacterial activity against multi-drug resistant Escherichia coli 5 clinical isolate assessed as bacterial growth inhibition in presence of CAMHB medium by broth microdilution method; type: functional
Acinetobacter baumannii [11] = test: Antibacterial activity against multi-drug resistant Acinetobacter baumannii 1 clinical isolate assessed as bacterial growth inhibition in presence of CAMHB medium by broth microdilution method; type: functional
Acinetobacter baumannii [12] = test: Antibacterial activity against multi-drug resistant Acinetobacter baumannii 2 clinical isolate assessed as bacterial growth inhibition in presence of CAMHB medium by broth microdilution method; type: functional
Acinetobacter baumannii [13] = test: Antibacterial activity against multi-drug resistant Acinetobacter baumannii 3 clinical isolate assessed as bacterial growth inhibition in presence of CAMHB medium by broth microdilution method; type: functional
Acinetobacter baumannii [14] = test: Antibacterial activity against multi-drug resistant Acinetobacter baumannii 4 clinical isolate assessed as bacterial growth inhibition in presence of CAMHB medium by broth microdilution method; type: functional
Acinetobacter baumannii [15] = test: Antibacterial activity against multi-drug resistant Acinetobacter baumannii 5 clinical isolate assessed as bacterial growth inhibition in presence of CAMHB medium by broth microdilution method; type: functional

Work on `Brc1cc2c(c3ncccc13)OCN(Cc1ccccc1)C2` yielded an MIC (Escherichia coli [1]) of 25 µg/mL.

Work on `Brc1cc2c(c3ncccc13)OCN(CCOc1ccccc1)C2` yielded an MIC (Escherichia coli [1]) of 25 µg/mL.

Work on `FC(F)(F)Oc1ccc(CN2COc3c(cc(Br)c4cccnc34)C2)cc1` yielded an MIC (Escherichia coli [1]) greater than 100 µg/mL.

For `Fc1cc2c(c3ncccc13)OCN(Cc1ccc(C(F)(F)F)cc1)C2`, the MIC (Escherichia coli [1]) was 12.5 µg/mL, the MIC (Acinetobacter baumannii [2]) was 12.5 µg/mL and the MIC (Klebsiella pneumoniae) was 100 µg/mL. For the same compound, the MIC (Pseudomonas aeruginosa) was 100 µg/mL, the IC50 at 48 h [3] was 46.1 µg/mL (≈ 127 µM) and the IC50 at 48 h [4] was 7.93 µg/mL (≈ 21.9 µM).

`Brc1cc2c(c3ncccc13)OCN(CCCc1ccccc1)C2` showed an MIC (Escherichia coli [1]) of 50 µg/mL.

`Fc1cc(CN2COc3c(cc(Br)c4cccnc34)C2)cc(F)c1F` showed an MIC (Escherichia coli [1]) of 25 µg/mL.

Compound `Fc1cc2c(c3ncccc13)OCN(CCOc1ccc(Cl)cc1)C2` has an MIC (Escherichia coli [1]) of 12.5 µg/mL, an MIC (Acinetobacter baumannii [2]) of 12.5 µg/mL and an MIC (Klebsiella pneumoniae) of 50 µg/mL. For the same compound, the MIC (Pseudomonas aeruginosa) was 100 µg/mL, the IC50 at 48 h [3] was greater than 50 µg/mL and the IC50 at 48 h [4] was 22.3 µg/mL (≈ 62 µM).

Work on `Oc1ccc(CCN2COc3c(cc(F)c4cccnc34)C2)cc1` yielded an MIC (Escherichia coli [1]) greater than 100 µg/mL.

For `Fc1ccc(CN2COc3c(cc(Br)c4cccnc34)C2)c(F)c1`, the MIC (Escherichia coli [1]) was 25 µg/mL.

Work on `Fc1cc2c(c3ncccc13)OCN(Cc1cccc(Cl)c1)C2` yielded an MIC (Escherichia coli [1]) of 6.25 µg/mL, an MIC (Acinetobacter baumannii [2]) of 6.25 µg/mL and an MIC (Klebsiella pneumoniae) of 50 µg/mL. The MIC (Pseudomonas aeruginosa) was 50 µg/mL, the IC50 at 48 h [3] was 34 µg/mL (≈ 103 µM) and the IC50 at 48 h [4] was 19 µg/mL (≈ 57.7 µM).

In the case of `Brc1cc2c(c3ncccc13)OCN(CCc1ccccc1)C2`, the MIC (Escherichia coli [1]) is reported as 25 µg/mL.

Compound `Cc1ccc(CCN2COc3c(cc(Br)c4cccnc34)C2)cc1` has an MIC (Escherichia coli [1]) of 50 µg/mL.

Compound `Fc1cc2c(c3ncccc13)OCN(CCc1ccc(Br)cc1)C2` has an MIC (Escherichia coli [5]) of 25 µg/mL, an MIC (Escherichia coli [1]) of 6.25 µg/mL and an MIC (Acinetobacter baumannii [2]) of 3.12 µg/mL. It also gave an MIC (Klebsiella pneumoniae) of 100 µg/mL, an MIC (Pseudomonas aeruginosa) of 100 µg/mL and an IC50 at 48 h [3] greater than 50 µg/mL. It also gave an IC50 at 48 h [4] of 44.9 µg/mL (≈ 116 µM), an MIC (Escherichia coli [6]) of 50 µg/mL and an MIC (Escherichia coli [7]) of 50 µg/mL. For the same compound, the MIC (Escherichia coli [8]) was 50 µg/mL, the MIC (Escherichia coli [9]) was 50 µg/mL and the MIC (Escherichia coli [10]) was 50 µg/mL. For the same compound, the MIC (Acinetobacter baumannii [11]) was 12.5 µg/mL, the MIC (Acinetobacter baumannii [12]) was 3.12 µg/mL and the MIC (Acinetobacter baumannii [13]) was 12.5 µg/mL. It also gave an MIC (Acinetobacter baumannii [14]) of 25 µg/mL and an MIC (Acinetobacter baumannii [15]) of 6.25 µg/mL.

`FC(F)(F)c1ccc(CN2COc3c(cc(Br)c4cccnc34)C2)cc1` showed an MIC (Escherichia coli [1]) of 50 µg/mL.

`Cc1ccc(CCN2COc3c(cc(F)c4cccnc34)C2)cc1` gave an MIC (Escherichia coli [1]) of 25 µg/mL.

With `Fc1cccc(CCN2COc3c(cc(F)c4cccnc34)C2)c1` the MIC (Escherichia coli [1]) was 3.12 µg/mL, the MIC (Acinetobacter baumannii [2]) was 3.12 µg/mL and the MIC (Klebsiella pneumoniae) was 25 µg/mL. The MIC (Pseudomonas aeruginosa) was 25 µg/mL, the IC50 at 48 h [3] was 21.3 µg/mL (≈ 65.2 µM) and the IC50 at 48 h [4] was 29.4 µg/mL (≈ 90.2 µM).

In the case of `Fc1ccc(CN2COc3c(cc(Cl)c4cccnc34)C2)c(F)c1`, the MIC (Escherichia coli [5]) is reported as greater than 100 µg/mL, the MIC (Escherichia coli [1]) is reported as 6.25 µg/mL and the MIC (Acinetobacter baumannii [2]) is reported as 3.12 µg/mL. It also gave an MIC (Klebsiella pneumoniae) of 50 µg/mL, an MIC (Pseudomonas aeruginosa) of 100 µg/mL and an IC50 at 48 h [3] greater than 50 µg/mL. For the same compound, the IC50 at 48 h [4] was 34.2 µg/mL (≈ 98.6 µM), the MIC (Escherichia coli [6]) was 50 µg/mL and the MIC (Escherichia coli [7]) was 50 µg/mL. It also gave an MIC (Escherichia coli [8]) of 50 µg/mL, an MIC (Escherichia coli [9]) of 50 µg/mL and an MIC (Escherichia coli [10]) of 50 µg/mL. It also gave an MIC (Acinetobacter baumannii [11]) of 50 µg/mL, an MIC (Acinetobacter baumannii [12]) of 25 µg/mL and an MIC (Acinetobacter baumannii [13]) of 50 µg/mL. The MIC (Acinetobacter baumannii [14]) was 25 µg/mL and the MIC (Acinetobacter baumannii [15]) was 50 µg/mL.

`Clc1ccc(OCCN2COc3c(cc(Br)c4cccnc34)C2)cc1` gave an MIC (Escherichia coli [1]) of 50 µg/mL.

`Fc1cc2c(c3ncccc13)OCN(Cc1ccccc1)C2` showed an MIC (Escherichia coli [1]) of 25 µg/mL.

In the case of `Fc1cc2c(c3ncccc13)OCN(CCCc1ccccc1)C2`, the MIC (Escherichia coli [1]) is reported as 6.25 µg/mL, the MIC (Acinetobacter baumannii [2]) is reported as 6.25 µg/mL and the MIC (Klebsiella pneumoniae) is reported as 50 µg/mL. For the same compound, the MIC (Pseudomonas aeruginosa) was 100 µg/mL, the IC50 at 48 h [3] was 13.6 µg/mL (≈ 42.1 µM) and the IC50 at 48 h [4] was 26 µg/mL (≈ 80.5 µM).

For `Clc1ccc(OCCN2COc3c(cc(Cl)c4cccnc34)C2)cc1`, the MIC (Escherichia coli [1]) was 25 µg/mL.

`FC(F)(F)Oc1ccc(CN2COc3c(cc(Cl)c4cccnc34)C2)cc1` gave an MIC (Escherichia coli [1]) of 50 µg/mL.

Work on `Fc1cc(CN2COc3c(cc(F)c4cccnc34)C2)cc(F)c1F` yielded an MIC (Escherichia coli [1]) of 25 µg/mL.

Compound `Clc1cccc(CN2COc3c(cc(Br)c4cccnc34)C2)c1` has an MIC (Escherichia coli [1]) of 25 µg/mL.

`Fc1cc2c(c3ncccc13)OCN(Cc1ccc(Cl)cc1)C2` showed an MIC (Escherichia coli [5]) of 25 µg/mL, an MIC (Escherichia coli [1]) of 6.25 µg/mL and an MIC (Acinetobacter baumannii [2]) of 6.25 µg/mL. The MIC (Klebsiella pneumoniae) was 100 µg/mL, the MIC (Pseudomonas aeruginosa) was 50 µg/mL and the IC50 at 48 h [3] was greater than 50 µg/mL. It also gave an IC50 at 48 h [4] of 35.6 µg/mL (≈ 108 µM), an MIC (Escherichia coli [6]) of 50 µg/mL and an MIC (Escherichia coli [7]) of 50 µg/mL. The MIC (Escherichia coli [8]) was 50 µg/mL, the MIC (Escherichia coli [9]) was 50 µg/mL and the MIC (Escherichia coli [10]) was 50 µg/mL. It also gave an MIC (Acinetobacter baumannii [11]) of 12.5 µg/mL, an MIC (Acinetobacter baumannii [12]) of 25 µg/mL and an MIC (Acinetobacter baumannii [13]) of 12.5 µg/mL. For the same compound, the MIC (Acinetobacter baumannii [14]) was 3.12 µg/mL and the MIC (Acinetobacter baumannii [15]) was 25 µg/mL.
